The source of these data is patent EP0396827A1, “2-Phenylthiobenzylamine dervivatives and acid addition salts thereof” (SPOFA Spojené Podniky Pro Zdravotnickou Vyrobu, priority 1989, dated 1990).

The target in one data set is T1, IP receptors (Rattus norvegicus, UniProt P31652).
T1 construct: standard biochemical tests on rat hypothalamus; from tissue; host or cells: rat hypothalamus
In words: inhibition of tritium-labelled imipramine binding in rat hypothalamus. The protocol: (§1) The above compound was selected as a preferred structure from numerous related new substances on the basis of pharmacological evaluation.
(§2) The substances under study were tested in the form of salts administered p.o. The results are conventionally expressed as medium inhibition concentrations IC₅₀ (nM) and effective doses ED (eliciting a first statistically significant response) or medium effective doses ED₅₀ (mg per kg); the concentrations and effective doses are calculated as the corresponding amounts of the base.
(§3) Acute toxicity was tested in mice p.o. and medium lethal dose LD₅₀ is given. Thus, compound IA hydrogen maleate LD₅₀ 232 mg/kg. […] Reserpine hypothermia ED 10, ptosis 25, ulceration 50 mg/kg. Yohimbine, ED₅₀ 54.7 mg/kg.

A further data set concerns NA re-uptake. In words: ³H-noradrenaline re-uptake inhibition in rat brain cortex. Type of data set: biochemical. To be noted: ³H-noradrenaline 10 nM, calculated as base, read-out: NA re-uptake IC₅₀. Here is the method:
(§4) The reported selective action of compound IA was verified by direct comparison of ³H-5-HT (10 nM) and ³H-noradrenaline (NA, 10 nM) re-uptake in rat brain cortex; again the two sets of values were markedly differentiated in the sense of predominant 5-HT re-uptake inhibition.
as §2, §3

In the next data set the target is T2, DP receptors (Rattus norvegicus, UniProt Q63380).
T2 construct: standard biochemical tests on rat hypothalamus; from tissue; host or cells: rat hypothalamus
T2 sequence (Q63380 1-617): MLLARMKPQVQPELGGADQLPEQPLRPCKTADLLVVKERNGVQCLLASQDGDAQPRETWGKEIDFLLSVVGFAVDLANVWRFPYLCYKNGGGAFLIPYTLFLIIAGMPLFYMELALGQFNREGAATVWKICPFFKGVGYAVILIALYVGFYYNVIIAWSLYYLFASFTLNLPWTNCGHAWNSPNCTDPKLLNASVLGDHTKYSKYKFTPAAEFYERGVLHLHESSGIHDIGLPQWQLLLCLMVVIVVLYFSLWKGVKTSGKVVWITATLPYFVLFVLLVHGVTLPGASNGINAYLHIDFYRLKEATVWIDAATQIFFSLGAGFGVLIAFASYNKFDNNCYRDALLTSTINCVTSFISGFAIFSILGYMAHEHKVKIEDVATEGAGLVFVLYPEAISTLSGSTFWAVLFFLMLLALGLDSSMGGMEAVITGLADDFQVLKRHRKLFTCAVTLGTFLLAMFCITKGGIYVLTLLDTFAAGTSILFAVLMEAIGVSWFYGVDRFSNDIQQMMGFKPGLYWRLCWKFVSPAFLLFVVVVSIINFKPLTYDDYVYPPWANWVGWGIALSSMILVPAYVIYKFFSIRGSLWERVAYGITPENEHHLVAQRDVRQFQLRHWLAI
Kind of data set: inhibition of tritium-labelled desipramine binding in rat hypothalamus. The protocol: as §1, §2, §3

The nature of data set [1]: acute toxicity in mice p.o. To be noted: mouse, in vivo, po, read-out: LD₅₀. The protocol: as §3
Data set [2] in a line: potentiation of yohimbine toxicity in mice. Type of data set: in vivo. Conditions: Mus musculus, po, calculated as base, read-out: Yohimbine, ED₅₀. The protocol: (§5) Also, standard pharmacological tests of antireserpine activity (on experimental hypothermia, eyelid ptosis and gastric ulceration) and potentiation of yohimbine toxicity in mice are indicative of pronounced antidepressant properties of compound IA.
as §2, §3

The subject of the next data set is 5-HT re-uptake. In words: ³H-5-HT re-uptake inhibition in rat brain cortex. Type of data set: biochemical. To be noted: ³H-5-HT 10 nM, calculated as base, read-out: 5-HT re-uptake IC₅₀. The protocol: as §4, §2, §3
A short description of data set [3]: antireserpine activity: reserpine eyelid ptosis. Type of data set: in vivo. Conditions: p.o.; ED eliciting a first statistically significant response; calculated as base. The protocol:
as §5, §2, §3

The nature of data set [4]: antireserpine activity: reserpine gastric ulceration. To be noted: p.o.; ED eliciting a first statistically significant response; calculated as base. Type of data set: in vivo. Here is the method: as §5, §2, §3
The nature of data set [5]: antireserpine activity: reserpine hypothermia. Type of data set: in vivo. To be noted: p.o.; ED eliciting a first statistically significant response; calculated as base. The protocol:
as §5, §2, §3

Counter-ions that a name gives are not always drawn.

T1 sequence (P31652 whole entry): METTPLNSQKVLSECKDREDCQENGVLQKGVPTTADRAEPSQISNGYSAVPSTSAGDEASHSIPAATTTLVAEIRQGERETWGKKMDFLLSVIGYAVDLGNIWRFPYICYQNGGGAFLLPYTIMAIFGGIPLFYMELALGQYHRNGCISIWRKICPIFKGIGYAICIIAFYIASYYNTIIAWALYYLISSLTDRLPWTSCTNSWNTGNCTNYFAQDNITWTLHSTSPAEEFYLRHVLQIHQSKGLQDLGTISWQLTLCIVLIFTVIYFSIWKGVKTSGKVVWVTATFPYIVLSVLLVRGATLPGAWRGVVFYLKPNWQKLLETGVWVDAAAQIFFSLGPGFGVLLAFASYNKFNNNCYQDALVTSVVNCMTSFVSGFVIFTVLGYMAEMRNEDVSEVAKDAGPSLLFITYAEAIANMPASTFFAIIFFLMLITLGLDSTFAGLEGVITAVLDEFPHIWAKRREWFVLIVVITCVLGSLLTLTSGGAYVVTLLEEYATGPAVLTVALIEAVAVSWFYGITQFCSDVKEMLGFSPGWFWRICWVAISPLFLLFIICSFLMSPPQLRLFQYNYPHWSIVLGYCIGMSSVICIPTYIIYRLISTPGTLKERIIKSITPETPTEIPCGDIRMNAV

`CN(C)Cc1ccccc1Sc1cccc(O)c1` [compound IA hydrogen maleate, N,N-Dimethyl-2-(3-hydroxyphenylthio)benzylamine]: the IC50 at IP receptors is 0.00424 µM; in the data set on NA re-uptake it was 506 µM; on DP receptors, 12.9 µM; in the data set with 5-HT re-uptake it was 0.00058 µM. The LD50 in data set [1] was 232 mg/kg. In [2], the ED50 was 54.7 mg/kg. The “Reserpine ptosis ED” value in [3] was 25 mg/kg. Further, in data set [4], the “Reserpine ulceration ED” value was 50 mg/kg. Further, the “Reserpine hypothermia ED” value in data set [5] is 10 mg/kg.
